In PubChem BioAssay (NCI):
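All cell lines were grown in 96-well plates and treated with compound for 48 hours. GI50 = concentration required for 50% inhibition of growth. Definition used: TGI = concentration required for complete inhibition of growth.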

Tests used:
Assay in all cases: inhibition of tumour cell growth, NCI panel, 48 h
[1] = test system: BT-549 breast
[2] = test system: M14 melanoma
[3] = test system: U251 CNS
[4] = test system: MDA-MB-231 breast
[5] = test system: OVCAR-4 ovarian
[6] = test system: NCI/ADR-RES ovarian
[7] = test system: LOX IMVI melanoma
[8] = test system: NCI-H23 lung
[9] = test system: SK-OV-3 ovarian
[10] = test system: DU-145 prostate
[11] = test system: PC-3 prostate
[12] = test system: T-47D breast
[13] = test system: SF-268 CNS
[14] = test system: MOLT-4 leukemia
[15] = test system: KM12 colon
[16] = test system: NCI-H460 lung
[17] = test system: CCRF-CEM leukemia
[18] = test system: MALME-3M melanoma
[19] = test system: HOP-92 NSCLC
[20] = test system: ACHN renal
[21] = test system: SN12C renal
[22] = test system: SNB-75 CNS
[23] = test system: SK-MEL-5 melanoma
[24] = test system: UACC-257 melanoma
[25] = test system: OVCAR-8 ovarian
[26] = test system: HCT-15 colon
[27] = test system: K-562 leukemia
[28] = test system: SNB-19 CNS
[29] = test system: HOP-62 NSCLC
[30] = test system: CAKI-1 renal
[31] = test system: TK-10 renal
[32] = test system: COLO 205 colon
[33] = test system: HT29 colon
[34] = test system: HCT-116 colon
[35] = test system: NCI-H226 lung
[36] = test system: NCI-H522 lung
[37] = test system: IGROV1 ovarian
[38] = test system: OVCAR-5 ovarian
[39] = test system: SK-MEL-28 melanoma
[40] = test system: SR leukemia
[41] = test system: HCC-2998 colon
[42] = test system: SF-539 CNS
[43] = test system: SF-295 CNS
[44] = test system: HL-60(TB) leukemia
[45] = test system: HS 578T breast
[46] = test system: A549 NSCLC
[47] = test system: UO-31 renal
[48] = test system: RPMI-8226 leukemia
[49] = test system: UACC-62 melanoma
[50] = test system: RXF 393 renal
[51] = test system: SK-MEL-2 melanoma
[52] = test system: MDA-MB-435
[53] = test system: SW-620 colon
[54] = test system: A498 renal
[55] = test system: MCF7 breast
[56] = test system: 786-0 renal
[57] = test system: OVCAR-3 ovarian

Cn1cc(C2=C(c3cn(C)c4ccccc34)C(=O)NC2=O)c2ccccc21
GI50 [1]: 2.33 µM
TGI [1]: > 25 µM
GI50 [2]: 1.9 µM
TGI [2]: > 25 µM
GI50 [3]: 1.26 µM
TGI [3]: > 25 µM
GI50 [4]: > 23.5 µM
TGI [4]: > 25 µM
GI50 [5]: 5.01 µM
TGI [5]: > 25 µM
GI50 [6]: 1.55 µM
TGI [6]: > 25 µM
GI50 [7]: 1.8 µM
TGI [7]: > 25 µM
GI50 [8]: 2.3 µM
TGI [8]: > 25 µM
GI50 [9]: 1.51 µM
TGI [9]: > 25 µM
GI50 [10]: 1.66 µM
TGI [10]: > 25 µM
GI50 [11]: 1.12 µM
TGI [11]: > 25 µM
GI50 [12]: 1800 nM
TGI [12]: > 25 µM
GI50 [13]: 3.1 µM
TGI [13]: > 25 µM
GI50 [14]: 4.81 µM
TGI [14]: > 25 µM
GI50 [15]: 0.948 µM
TGI [15]: > 25 µM
GI50 [16]: 1120 nM
TGI [16]: > 25 µM
GI50 [17]: 952 nM
TGI [17]: > 25 µM
GI50 [18]: 4.42 µM
TGI [18]: > 25 µM
GI50 [19]: 1.45 µM
TGI [19]: > 7.23 µM
GI50 [20]: 2.25 µM
TGI [20]: > 25 µM
GI50 [21]: 3.47 µM
TGI [21]: > 25 µM
GI50 [22]: 306 nM
TGI [22]: 1640 nM
GI50 [23]: 0.873 µM
TGI [23]: > 25 µM
GI50 [24]: 4.17 µM
TGI [24]: > 25 µM
GI50 [25]: 2.96 µM
TGI [25]: > 25 µM
GI50 [26]: 0.729 µM
TGI [26]: > 25 µM
GI50 [27]: 0.235 µM
TGI [27]: > 25 µM
GI50 [28]: 11.5 µM
TGI [28]: > 25 µM
GI50 [29]: 1.92 µM
TGI [29]: > 25 µM
GI50 [30]: 1200 nM
TGI [30]: > 25 µM
GI50 [31]: 8.75 µM
TGI [31]: > 25 µM
GI50 [32]: 1.1 µM
TGI [32]: > 25 µM
GI50 [33]: 775 nM
TGI [33]: > 25 µM
GI50 [34]: 1.17 µM
TGI [34]: > 25 µM
GI50 [35]: 9.19 µM
TGI [35]: > 25000 nM
GI50 [36]: 0.433 µM
TGI [36]: 2520 nM
GI50 [37]: 11.7 µM
TGI [37]: > 25 µM
GI50 [38]: > 25000 nM
TGI [38]: > 25 µM
GI50 [39]: 3.71 µM
TGI [39]: > 25 µM
GI50 [40]: 248 nM
TGI [40]: > 25 µM
GI50 [41]: > 25 µM
TGI [41]: > 25 µM
GI50 [42]: 738 nM
TGI [42]: 5.25 µM
GI50 [43]: 903 nM
TGI [43]: > 25 µM
GI50 [44]: 0.747 µM
TGI [44]: 5.1 µM
GI50 [45]: 0.7 µM
TGI [45]: > 19.9 µM
GI50 [46]: 1.97 µM
TGI [46]: > 25 µM
GI50 [47]: 2.49 µM
TGI [47]: > 25 µM
GI50 [48]: > 8.42 µM
TGI [48]: > 25 µM
GI50 [49]: 2240 nM
TGI [49]: > 25 µM
GI50 [50]: 0.825 µM
TGI [50]: 14.5 µM
GI50 [51]: 0.894 µM
TGI [51]: > 14 µM
GI50 [52]: 0.095 µM
TGI [52]: > 6.61 µM
GI50 [53]: 0.88 µM
TGI [53]: > 25 µM
GI50 [54]: 457 nM
TGI [54]: > 25000 nM
GI50 [55]: 720 nM
TGI [55]: > 25 µM
GI50 [56]: 1.52 µM
TGI [56]: > 25 µM
GI50 [57]: 0.646 µM
TGI [57]: > 6.67 µM

Cc1cc(N(CCCl)CCCl)ccc1C=Nc1ccc2ccccc2c1
GI50 [1]: 19.8 µM
TGI [1]: > 100 µM
GI50 [2]: 31.7 µM
TGI [2]: > 100 µM
GI50 [3]: 9.98 µM
TGI [3]: > 100 µM
GI50 [4]: 34.5 µM
TGI [4]: > 100 µM
GI50 [5]: 15.5 µM
TGI [5]: > 100 µM
GI50 [6]: 9.62 µM
TGI [6]: > 100 µM
GI50 [7]: 22.1 µM
TGI [7]: > 100 µM
GI50 [8]: 6.12 µM
TGI [8]: > 100 µM
GI50 [9]: 19.3 µM
TGI [9]: > 100 µM
GI50 [10]: 7.71 µM
TGI [10]: > 100 µM
GI50 [11]: 17 µM
TGI [11]: > 100 µM
GI50 [12]: 3320 nM
TGI [12]: > 100 µM
GI50 [13]: 15.8 µM
TGI [13]: > 100 µM
GI50 [14]: 4.52 µM
TGI [14]: > 100 µM
GI50 [15]: 66.8 µM
TGI [15]: > 100 µM
GI50 [16]: 485 nM
TGI [16]: > 100 µM
GI50 [17]: 4850 nM
TGI [17]: > 100 µM
GI50 [18]: 50.3 µM
TGI [18]: > 100 µM
GI50 [19]: 11.8 µM
TGI [19]: 61.1 µM
GI50 [20]: 4.51 µM
TGI [20]: > 100 µM
GI50 [21]: 12.4 µM
TGI [21]: > 100 µM
GI50 [22]: 2520 nM
TGI [22]: > 89700 nM
GI50 [23]: 6.8 µM
TGI [23]: 27.6 µM
GI50 [24]: 3.17 µM
TGI [24]: > 39.6 µM
GI50 [25]: 24.3 µM
TGI [25]: > 100 µM
GI50 [26]: 27.6 µM
TGI [26]: > 100 µM
GI50 [27]: 32.4 µM
TGI [27]: > 100 µM
GI50 [28]: 51.2 µM
TGI [28]: > 100 µM
GI50 [29]: 25.2 µM
TGI [29]: > 100 µM
GI50 [30]: 1510 nM
TGI [30]: > 100 µM
GI50 [31]: 24.5 µM
TGI [31]: > 100 µM
GI50 [32]: 13.2 µM
TGI [32]: > 82.6 µM
GI50 [33]: > 85300 nM
TGI [33]: > 100 µM
GI50 [34]: 38 µM
TGI [34]: > 100 µM
GI50 [35]: 0.297 µM
TGI [35]: 1820 nM
GI50 [36]: 20.1 µM
TGI [36]: > 66500 nM
GI50 [37]: 28.5 µM
TGI [37]: > 100 µM
GI50 [38]: 2520 nM
TGI [38]: > 100 µM
GI50 [39]: > 100 µM
TGI [39]: > 100 µM
GI50 [40]: 4080 nM
TGI [40]: > 100 µM
GI50 [41]: 27.9 µM
TGI [41]: > 100 µM
GI50 [42]: 4970 nM
TGI [42]: > 100 µM
GI50 [43]: 2080 nM
TGI [43]: > 55.8 µM
GI50 [44]: 8.6 µM
TGI [44]: > 68.6 µM
GI50 [45]: 34.3 µM
TGI [45]: > 100 µM
GI50 [46]: 14.2 µM
TGI [46]: > 100 µM
GI50 [47]: 8.71 µM
TGI [47]: > 100 µM
GI50 [48]: 29.3 µM
TGI [48]: > 100 µM
GI50 [49]: 2450 nM
TGI [49]: 28.3 µM
GI50 [50]: 13.4 µM
TGI [50]: > 96 µM
GI50 [51]: 40 µM
TGI [51]: 98 µM
GI50 [52]: 53.3 µM
TGI [52]: > 100 µM
GI50 [53]: 41.9 µM
TGI [53]: > 100 µM
GI50 [54]: 226 nM
TGI [54]: 1130 nM
GI50 [55]: 2360 nM
TGI [55]: > 100 µM
GI50 [56]: 12.7 µM
TGI [56]: > 100 µM
GI50 [57]: 14.8 µM
TGI [57]: > 77 µM
